Source: publication PMC4809600, “The Influence of Chronic Wound Extracts on Inflammatory Cytokine and Histatin Stability” (PLoS ONE, 2016)

Test system: dermal fibroblasts
Assay: Fibroblast wound healing scratch assay (migration)
Type: cell-based, human
Settings: serum-free medium, histatins 5 μM, rhIL-6 125 ng/ml, rhCXCL8 250 ng/ml, (E0-E96)/(U0-U96), unexposed = 1; for Migration of dermal fibroblasts in scratch assay, 8 h exposure: 8 h exposure then 88 h without, read at 96 h; for Migration of dermal fibroblasts in scratch assay, 96 h exposure: continuous 96 h exposure
Experimental: Dermal fibroblasts were isolated from healthy human abdominal skin from patients undergoing corrective abdominal plastic surgery. After removal of all adipose tissue, the skin was washed in PBS and incubated overnight on dispase II (Roche, Mannheim, Germany) at 4°C. The next day, epidermis was removed and discarded and the dermis was incubated in collagenase type II (Gibco, Life Technologies, Grand Island, USA)/dispase II in Hanks balanced salt solution (HBSS) (Gibco) at 37°C for 2–3 h. Fibroblast medium consisting of DMEM (Lonza, Verviers, Belgium) containing 1% ultroserG (UG) (Biosepra, Cergy-Saint-Christopher, France) and 1% penicillin-streptomycin (P/S) (Gibco) was added and the solution was passed through an 100 μm and 40 μm cell strainer (Becton Dickinson Falcon, Erembodegem, Belgium). A single cell suspension was seeded at ± 3.5 x 10^4 cells cm^2 and further cultured in fibroblast medium. Medium was changed twice a week and cultures were passaged when 90% confluent using 0.5mM EDTA/0.05% trypsin (Gibco). The cells were maintained at 37°C in a humidified atmosphere containing 5% CO2 and used for experiments at passage 3.
A wound healing scratch assay was performed to determine the effect of histatins, rhIL-6 and rhCXCL8 on fibroblast migration. Confluent monolayers of fibroblasts in a 48-well plate (Costar, Corning Incorporated, New York, USA) were incubated with serum-free medium (DMEM containing 1% P/S and 0.1% bovine serum albumin (Sigma-Aldrich)) for 96 h to ensure minimum spontaneous migration. Next, a scratch was drawn with a disposable plastic pipette tip. Cultures were exposed to Hst1, cHst1, Hst2 and mad-Hst1 (all used at a concentration of 5μM), rhIL-6 (125 ng/ml), rhCXCL8 (250 ng/ml) and vehicle (H2O) in serum free medium. Two experimental set-ups were studied: i) cells were exposed only during the first 8 h to histatins and cytokines and then transferred to vehicle supplemented medium for an additional 88 h; or ii) cells were exposed to histatins and cytokines during the entire 96 h study period. Phase contrast micrographs were taken directly after drawing the scratch and after four days (96 h) of exposure. Data were analyzed using an image processing algorithm that has been described in detail in our previous work. The area of the scratch covered by migrating fibroblasts was determined using the following equation: (E0-E96)/(U0-U96), in which: E = exposure to a condition (IL-6, CXCL8 and histatins); U = unexposed (serum-free medium); E0 and U0 = area of the scratch at T = 0 h; E96 and U96 = area of the scratch (not covered with cells) after 96 h. In this way, in each exposed group (IL-6, CXCL8, histatins) the resurfaced area at 96 h is compared to its own 0 h time point and then set relative to the unexposed group (serum-free medium).

[1] = experiment 1, average of four replicates
[2] = experiment 2, average of four replicates
[3] = experiment 3, average of four replicates

cyclo(DNLPETGGDSHEKRHHGYRRKFHEKHHSHREFPFYGDYGSNYLY) [cHst1]
Migration of dermal fibroblasts in scratch assay, 8 h exposure [1]: 1.6 | Migration of dermal fibroblasts in scratch assay, 8 h exposure [2]: 1.24 | Migration of dermal fibroblasts in scratch assay, 8 h exposure [3]: 1.53 | Migration of dermal fibroblasts in scratch assay, 96 h exposure [1]: 1.46 | Migration of dermal fibroblasts in scratch assay, 96 h exposure [2]: 1.26 | Migration of dermal fibroblasts in scratch assay, 96 h exposure [3]: 1.33
